Literature values, collected in patent US9387169B2, “Rapamycin powders for pulmonary delivery” (Civitas Therapeutics, Inc., priority 2014, dated 2016).

Details: amorphous form

## CO[C@H]1C[C@@H]2CC[C@@H](C)[C@@](O)(O2)C(=O)C(=O)N2CCCC[C@H]2C(=O)O[C@H]([C@H](C)C[C@@H]2CC[C@@H](O)[C@H](OC)C2)CC(=O)[C@H](C)/C=C(\C)[C@@H](O)[C@@H](OC)C(=O)[C@H](C)C[C@H](C)/C=C/C=C/C=C/1C [amorphous rapamycin, rapamycin]
  chemical stability: extremely chemically unstable
